Data published in BigSolDB 2.1.

Nc1ncc(Br)nc1Br
solubility (mole fraction)
Conditions | 278.15 K | 283.15 K | 288.15 K | 293.15 K | 298.15 K | 303.15 K | 308.15 K | 313.15 K | 318.15 K | 323.15 K
in ethanol | 0.000754 | 0.000938 | 0.00115 | 0.00136 | 0.00158 | 0.0018 | 0.00202 | 0.00231 | 0.00261 | 0.00291
in ethylene glycol | 0.000127 | 0.000155 | 0.000185 | 0.000219 | 0.000256 | 0.000291 | 0.00033 | 0.000373 | 0.00042 | 0.000469
in isopropanol | 0.000516 | 0.000615 | 0.00072 | 0.00085 | 0.000986 | 0.00115 | 0.00131 | 0.00149 | 0.00169 | 0.00192
in propylene glycol | 0.000258 | 0.000304 | 0.00037 | 0.000432 | 0.000506 | 0.000577 | 0.000651 | 0.000734 | 0.000827 | 0.000928
in water | 2.55e-06 | 3.14e-06 | 3.73e-06 | 4.44e-06 | 5.18e-06 | 5.89e-06 | 6.76e-06 | 7.68e-06 | 8.61e-06 | 9.63e-06

Nc1nccnc1Cl
solubility (mole fraction)
Conditions | 278.15 K | 283.15 K | 288.15 K | 293.15 K | 298.15 K | 303.15 K | 308.15 K | 313.15 K | 318.15 K | 323.15 K
in DMF | 0.00918 | 0.0122 | 0.0155 | 0.02 | 0.0247 | 0.0295 | 0.0346 | 0.04 | 0.0456 | 0.0515
in ethylene glycol | 0.000725 | 0.000935 | 0.00117 | 0.00147 | 0.0018 | 0.00217 | 0.00257 | 0.00301 | 0.00348 | 0.00394
in isopropanol | 0.002 | 0.00254 | 0.00319 | 0.004 | 0.00488 | 0.00591 | 0.00697 | 0.008 | 0.00929 | 0.0109
in methanol | 0.00283 | 0.00372 | 0.00479 | 0.00598 | 0.00723 | 0.00847 | 0.01 | 0.0116 | 0.0133 | 0.0153
in water | 2.78e-05 | 3.74e-05 | 4.95e-05 | 6.21e-05 | 7.6e-05 | 9.05e-05 | 0.000106 | 0.000123 | 0.00014 | 0.000158
